Test results from ChEMBL document CHEMBL6115017, “Discovery of DFV890, a Potent Sulfonimidamide-Containing NLRP3 Inflammasome Inhibitor” (J Med Chem, 2025).
pIC50: −log10 of the molar value.

Key:
Cytochrome P450 2C8 [1] = target: T1, Cytochrome P450 2C8 (Homo sapiens, UniProt P10632); test: Inhibition of CYP2C8 (unknown origin); type: ADME
T1 sequence (P10632 whole entry): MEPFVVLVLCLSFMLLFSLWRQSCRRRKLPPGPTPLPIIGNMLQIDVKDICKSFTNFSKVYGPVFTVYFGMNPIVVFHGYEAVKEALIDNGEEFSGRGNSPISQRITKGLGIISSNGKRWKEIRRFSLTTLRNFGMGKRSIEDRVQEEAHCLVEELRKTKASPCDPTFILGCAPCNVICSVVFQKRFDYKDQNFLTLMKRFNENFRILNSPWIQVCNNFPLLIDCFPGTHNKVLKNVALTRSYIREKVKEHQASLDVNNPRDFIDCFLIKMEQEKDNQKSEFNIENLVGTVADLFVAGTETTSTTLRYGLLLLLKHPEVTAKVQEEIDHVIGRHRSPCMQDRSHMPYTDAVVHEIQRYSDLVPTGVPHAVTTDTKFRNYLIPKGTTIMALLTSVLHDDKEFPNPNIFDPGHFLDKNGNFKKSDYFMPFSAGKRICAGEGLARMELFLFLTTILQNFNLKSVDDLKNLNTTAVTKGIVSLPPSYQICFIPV

[2] = Cmax in C57 BL6 mouse at 10 mg/kg, po by LC-MS analysis; type: ADME, organism-based; conditions: in vivo
[3] = Metabolic stability in mouse hepatocytes assessed as intrinsic clearance measured per 10^6 cells; type: ADME, cell-based, Hepatocyte; conditions: read-out: CLH
Cytochrome P450 2C19 = Cytochrome P450 2C19 (Homo sapiens, UniProt P33261); test: Inhibition of CYP2C19 (unknown origin) by time dependent inhibition assay; type: ADME
Cytochrome P450 2C19, sequence (P33261 whole entry): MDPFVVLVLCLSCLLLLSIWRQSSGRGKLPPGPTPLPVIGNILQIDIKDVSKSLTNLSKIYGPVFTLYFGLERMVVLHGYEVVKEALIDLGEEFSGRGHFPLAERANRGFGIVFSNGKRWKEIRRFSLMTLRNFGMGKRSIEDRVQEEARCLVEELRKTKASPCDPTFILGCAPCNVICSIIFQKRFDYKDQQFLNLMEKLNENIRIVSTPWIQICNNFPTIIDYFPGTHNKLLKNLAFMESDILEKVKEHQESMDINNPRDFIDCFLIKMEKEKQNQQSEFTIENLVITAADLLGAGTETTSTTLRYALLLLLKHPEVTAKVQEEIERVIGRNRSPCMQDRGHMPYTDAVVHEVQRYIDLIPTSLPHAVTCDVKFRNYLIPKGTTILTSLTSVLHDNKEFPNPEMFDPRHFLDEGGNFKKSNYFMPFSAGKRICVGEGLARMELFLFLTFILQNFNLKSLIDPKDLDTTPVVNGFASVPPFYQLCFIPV

Cytochrome P450 2C8 [4] = target: T1, Cytochrome P450 2C8; test: Inhibition of CYP2C8 (unknown origin) by time dependent inhibition assay; type: ADME
Cytochrome P450 2D6 = Cytochrome P450 2D6 (Homo sapiens, UniProt P10635); test: Inhibition of CYP2D6 (unknown origin) by time dependent inhibition assay; type: ADME
Cytochrome P450 2D6, sequence (P10635 whole entry): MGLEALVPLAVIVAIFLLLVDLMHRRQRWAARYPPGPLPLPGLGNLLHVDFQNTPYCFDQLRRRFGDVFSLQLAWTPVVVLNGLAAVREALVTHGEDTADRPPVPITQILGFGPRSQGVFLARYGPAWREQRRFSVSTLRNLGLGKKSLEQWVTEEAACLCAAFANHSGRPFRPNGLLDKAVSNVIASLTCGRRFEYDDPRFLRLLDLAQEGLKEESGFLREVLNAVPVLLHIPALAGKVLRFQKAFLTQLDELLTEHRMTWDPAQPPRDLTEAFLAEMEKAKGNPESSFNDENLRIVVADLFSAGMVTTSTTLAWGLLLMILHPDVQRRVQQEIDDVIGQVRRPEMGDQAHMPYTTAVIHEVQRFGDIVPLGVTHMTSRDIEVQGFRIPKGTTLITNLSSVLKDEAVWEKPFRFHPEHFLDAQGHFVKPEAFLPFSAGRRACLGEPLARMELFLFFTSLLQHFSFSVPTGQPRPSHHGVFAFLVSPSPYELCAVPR

THP-1 = test: Inhibition of mCerulean-tagged ASC pyroptosome formation in PMA-primed human THP-1 cells assessed as speak count pretreated for 1 hr followed by stimulated with gramicidin for 2 hrs by fluorescence imaging analysis; type: cell-based; conditions: dose 0.001-100 µM
Cytochrome P450 3A4 = Cytochrome P450 3A4 (Homo sapiens, UniProt P08684); test: Inhibition of CYP3A4 (unknown origin); type: ADME
Cytochrome P450 3A4, sequence (P08684 whole entry): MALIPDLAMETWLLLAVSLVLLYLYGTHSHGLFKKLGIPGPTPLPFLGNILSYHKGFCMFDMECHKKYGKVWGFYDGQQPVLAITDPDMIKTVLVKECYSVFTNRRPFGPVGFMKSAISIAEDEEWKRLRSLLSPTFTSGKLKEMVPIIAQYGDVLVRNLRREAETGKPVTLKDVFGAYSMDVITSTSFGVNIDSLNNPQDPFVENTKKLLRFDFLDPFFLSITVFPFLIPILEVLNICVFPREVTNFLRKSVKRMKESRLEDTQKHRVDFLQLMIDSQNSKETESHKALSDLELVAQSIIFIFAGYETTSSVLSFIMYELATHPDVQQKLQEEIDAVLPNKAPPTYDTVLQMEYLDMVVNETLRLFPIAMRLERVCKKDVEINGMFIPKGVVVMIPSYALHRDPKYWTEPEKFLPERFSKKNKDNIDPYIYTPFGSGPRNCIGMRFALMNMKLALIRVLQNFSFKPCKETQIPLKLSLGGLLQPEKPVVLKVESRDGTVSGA

[5] = Fraction unbound in Sprague-Dawley rat plasma; type: ADME, cell-free
[6] = In vivo inhibition of NLRP3 dependent cytokine production in po dosed LPS-challenged C57BL/6 mouse model assessed as inhibition of LPS-induced IL-1beta production in blood by measuring plasma compound concentration by enhanced flex bead assay; type: functional, organism-based
[7] = Half life in Cynomolgus monkey at 5 mg/kg, po and 2 mg/kg, iv by LC-MS analysis; type: ADME, organism-based, Macaca fascicularis; conditions: in vivo
[8] = Half life in Beagle dog at 2 mg/kg, po and 1 mg/kg, iv by LC-MS analysis; type: ADME, organism-based, Canis lupus familiaris; conditions: in vivo

Q: With CC(C)(O)c1ncc([S@](N)(=O)=NC(=O)Nc2c3c(cc4c2CCC4)CCC3)s1 as the molecule, how does the pIC50 (Cytochrome P450 2C8 [1]) read?
A: < 4.22

Q: And the Cmax [2]?
A: 22200 ng/mL

Q: What about the hepatocyte CLint [3] of the same molecule?
A: < 1.9 µL/min/1e6 cells

Q: What about the TDI (Cytochrome P450 2C19) of the same molecule?
A: Not_active

Q: And the TDI (Cytochrome P450 2C8 [4])?
A: Not_active

Q: What about the TDI (Cytochrome P450 2D6) of the same molecule?
A: Not_active

Q: And the inhibition (THP-1)?
A: Dose-dependent-effect

Q: What about the pIC50 (Cytochrome P450 3A4) of the same molecule?
A: < 4.22

Q: And the fraction unbound [5]?
A: 0.012

Q: What about the IC50 ([6]; Mus musculus, C57BL/6) of the same molecule?
A: 0.416 µg/mL

Q: What about the IC90 ([6]; route po) of the same molecule?
A: 3.742 µg/mL

Q: And the half-life [7]?
A: 5.2 h

Q: And the half-life [8]?
A: 9.4 h
